The record followed here is patent publication US20100311748A1, “HETEROCYCLIC AMIDES USEFUL FOR THE TREATMENT OF CANCER AND PSORIASIS” (ASTRAZENECA AB, priority 2007, published 2010).

The test system of this assay is Hedgehog pathway. Description: Hedgehog Pathway Cellular Differentiation Assay (alkaline phosphatase production in C3H10T1/2 cells with Shh ligand). It counts as cell-based. To be noted: Mus musculus, C3H 10T1/2, 3 μM compound, Shh ligand conditioned media, 72 h, alkaline phosphatase. Put shortly: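 C3H10T1/2 cells in DMEM/2% FBS with Shh-conditioned medium were treated 72 h with compound, threefold dilutions from 30 μM to 3 nM. After RIPA lysis, alkaline phosphatase was read with pNp (1 mg/mL, diethanolamine pH 9.8) at 30 °C, absorbance 405 nm. Percent inhibition and IC50 came from absorbance.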

Broadly, the inhibition is the percentage by which the read-out fell short of the control.

For the molecule `Cc1ccc(-c2ncc[nH]2)cc1NC(=O)c1ccc(OCc2ccc(S(C)(=O)=O)cc2)cc1` [Example 60, N-[5-(1H-imidazol-2-yl)-2-methylphenyl]-4-{[4-(methylsulfonyl)benzyl]oxy}benzamide], testing at 3 µM gave an inhibition of 79.7%.
The figure for `Cc1ccc(-c2nc[nH]c2C)cc1NC(=O)c1ccc(OCc2ccccc2C#N)cc1` [Example 54, 4-[(2-cyanophenyl)methoxy]-N-[2-methyl-5-(5-methyl-1H-imidazol-4-yl)phenyl]benzamide] is 77.5%; for `COc1cc(COc2ccc(C(=O)Nc3cc(-c4ncc[nH]4)ccc3C)cc2)cc(OC)c1` [Example 47, 4-[(3,5-dimethoxyphenyl)methoxy]-N-[5-(1H-imidazol-2-yl)-2-methyl-phenyl]benzamide] it is 80.9%.
The figure for `COc1ccnc(COc2ccc(C(=O)Nc3cc(-c4ncc[nH]4)ccc3C)cc2)c1` [Example 92, N-[5-(1H-imidazol-2-yl)-2-methylphenyl]-4-[(4-methoxypyridin-2-yl)methoxy]benzamide] is 76%.
With `Cc1nc(-c2ccc(C)c(NC(=O)c3ccc(OCc4ccccn4)cc3)c2)no1` [Example 40, N-(2-methyl-5-(5-methyl-1,2,4-oxadiazol-3-yl)phenyl)-4-(pyridin-2-ylmethoxy)benzamide], 3 µM produced 6.5% inhibition.
The figure for `Cc1ccc(-c2ccccc2)cc1NC(=O)c1ccc(OCc2ccccn2)cc1` [Example 65, N-(2-methyl-5-phenyl-phenyl)-4-(pyridin-2-ylmethoxy)benzamide] is 50%; for `Cc1ccc(-c2nc(-c3ccccc3)c[nH]2)cc1NC(=O)c1ccc(OCc2ccccn2)cc1` [Example 81, N-[2-methyl-5-(4-phenyl-1H-imidazol-2-yl)phenyl]-4-(pyridin-2-ylmethoxy)benzamide] it is 78.8%.
The result for `COc1cc(COc2ccc(C(=O)Nc3cc(-c4nc(C)cn4C)ccc3C)cc2)cc(OC)c1` [Example 42, 4-[(3,5-dimethoxyphenyl)methoxy]-N-[5-(1,4-dimethylimidazol-2-yl)-2-methyl-phenyl]benzamide] reads 79.4%; that for `Cc1ccc(-c2ncc[nH]2)cc1NC(=O)c1ccc(OCc2ccc(CO)cc2)cc1` [Example 62, 4-{[4-(hydroxymethyl)benzyl]oxy}-N-[5-(1H-imidazol-2-yl)-2-methylphenyl]benzamide], 76.9%.
As for `Cc1ccc(-c2cnc3ccccc3n2)cc1NC(=O)c1ccc(OCc2ccccn2)cc1` [Example 22, N-(2-methyl-5-quinoxalin-2-yl-phenyl)-4-(pyridin-2-ylmethoxy)benzamide], the inhibition at 3 µM is 60.7%.
The figure for `Cc1cn(C)c(-c2ccc(C)c(NC(=O)c3ccc(OCc4ccccc4C#N)cc3)c2)n1` [Example 45, 4-[(2-cyanophenyl)methoxy]-N-[5-(1,4-dimethylimidazol-2-yl)-2-methyl-phenyl]benzamide] is 80.3%.
Turning to `Cc1ccc(-c2ncc[nH]2)cc1NC(=O)c1ccc(OCc2cccc(N3CCN(C)CC3)n2)cc1` [Example 128, N-(5-(1H-imidazol-2-yl)-2-methylphenyl)-4-((6-(4-methylpiperazin-1-yl)pyridin-2-yl)methoxy)benzamide], testing at 3 µM gave an inhibition of 81.5%.
The result for `Cc1ccc(-c2cccc(N)n2)cc1NC(=O)c1ccc(OCc2ccccn2)cc1` [Example 8, N-[5-(6-aminopyridin-2-yl)-2-methyl-phenyl]-4-(pyridin-2-ylmethoxy)benzamide] reads 66.5%; that for `Cc1ccc(-c2ncc[nH]2)cc1NC(=O)c1ccc(OCc2cc(N(C)C)ccn2)cc1` [Example 127, 4-{[4-(dimethylamino)pyridin-2-yl]methoxy}-N-[5-(1H-imidazol-2-yl)-2-methylphenyl]benzamide], 76.3%.
For the molecule `Cc1ccc(-c2ncc[nH]2)cc1NC(=O)c1ccc(OCc2ncccc2C#N)cc1` [Example 136, N-(5-(1H-imidazol-2-yl)-2-methylphenyl)-4-((3-cyanopyridin-2-yl)methoxy)benzamide], 3 µM produced 77% inhibition.
Molecule `Cc1ccc(-c2cnn(C)c2)cc1NC(=O)c1ccc(OCc2ccccn2)cc1` [Example 33, N-[2-methyl-5-(1-methylpyrazol-4-yl)phenyl]-4-(pyridin-2-ylmethoxy)benzamide] yielded an inhibition at 3 µM of 54.7%.
The molecule `Cc1ccc(-c2ncc[nH]2)cc1NC(=O)c1ccc(OCc2ccc(OCCO)cn2)cc1` [Example 131, N-(5-(1H-imidazol-2-yl)-2-methylphenyl)-4-((5-(2-hydroxyethoxy)pyridin-2-yl)methoxy)benzamide] gave an inhibition at 3 µM of 72.7%.
The figure for `Cc1ccc(-c2ncc[nH]2)cc1NC(=O)c1ccc(OCc2cccc(Br)n2)cc1` [Example 119, N-(5-(1H-imidazol-2-yl)-2-methylphenyl)-4-((6-bromopyridin-2-yl)methoxy)benzamide] is 92.4%; for `Cc1ccc(-c2c(C)nn(C)c2C)cc1NC(=O)c1ccc(OCc2ccccn2)cc1` [Example 35, N-[2-methyl-5-(1,3,5-trimethylpyrazol-4-yl)phenyl]-4-(pyridin-2-ylmethoxy)benzamide] it is 76.8%; for `Cc1ccc(-c2ncc[nH]2)cc1NC(=O)c1ccc(OCc2ccc(N3CCN(C)CC3)cn2)cc1` [Example 155, N-[5-(1H-imidazol-2-yl)-2-methylphenyl]-4-{[5-(4-methylpiperazin-1-yl)pyridin-2-yl]methoxy}benzamide] it is 83.3%.
With `Cc1ccc(-c2ncc[nH]2)cc1NC(=O)c1ccc(NCc2ccccn2)cc1` [Example 117, N-(5-(1H-imidazol-2-yl)-2-methylphenyl)-4-(pyridin-2-ylmethylamino)benzamide], the inhibition at 3 µM was determined as 68.8%.
The result for `Cc1cc(C)c(-c2cn(C)cn2)cc1NC(=O)c1ccc(OCc2ccccn2)cn1` [Example 113, N-(2,4-dimethyl-5-(1-methyl-1H-imidazol-4-yl)phenyl)-5-(pyridin-2-ylmethoxy)picolinamide] reads 84.7%.
The figure for `Cc1ccc(-c2ncc[nH]2)cc1NC(=O)c1ccc(OCc2ccccc2C#N)cc1` [Example 46, 4-[(2-cyanophenyl)methoxy]-N-[5-(1H-imidazol-2-yl)-2-methyl-phenyl]benzamide] is 81.9%; for `Cc1ccc(-c2ncc(Cn3cccn3)s2)cc1NC(=O)c1ccc(OCc2ccccn2)cc1` [Example 4, N-[2-methyl-5-[5-(pyrazol-1-ylmethyl)1,3-thiazol-2-yl]phenyl]-4-(pyridin-2-ylmethoxy)benzamide] it is 65.4%.
Molecule `Cc1cc(F)c(-c2ncc[nH]2)cc1NC(=O)c1ccc(OCc2ccccn2)cc1` [Example 102, N-[4-fluoro-5-(1H-imidazol-2-yl)-2-methylphenyl]-4-(pyridin-2-ylmethoxy)benzamide] gave an inhibition at 3 µM of 87.1%.
The figure for `Cc1ccc(-c2nc(-c3nccs3)c[nH]2)cc1NC(=O)c1ccc(OCc2ccccn2)cc1` [Example 82, N-{2-methyl-5-[4-(1,3-thiazol-2-yl)-1H-imidazol-2-yl]phenyl}-4-(pyridin-2-ylmethoxy)benzamide] is 68.6%.
As for `Cc1ccc(-c2ncc[nH]2)cc1NC(=O)c1ccc(OCc2cc3c(cc2Cl)OCO3)cc1` [Example 57, 4-[(6-chloro-1,3-benzodioxol-5-yl)methoxy]-N-[5-(1H-imidazol-2-yl)-2-methylphenyl]benzamide], 3 µM produced 73.6% inhibition.
The figure for `COc1ccc(COc2ccc(C(=O)Nc3cc(-c4ncc[nH]4)ccc3C)cc2)nc1` [Example 130, N-(5-(1H-imidazol-2-yl)-2-methylphenyl)-4-((5-methoxypyridin-2-yl)methoxy)benzamide] is 91.9%; for `COc1ccccc1COc1ccc(C(=O)Nc2cc(-c3ncc[nH]3)ccc2C)cc1` [Example 63, N-[5-(1H-imidazol-2-yl)-2-methylphenyl]-4-[(2-methoxybenzyl)oxy]benzamide] it is 79.8%.
The result for `COc1cc(COc2ccc(C(=O)Nc3cc(-c4nccn4C)ccc3C)cc2)cc(OC)c1` [Example 50, 4-[(3,5-dimethoxyphenyl)methoxy]-N-[2-methyl-5-(1-methylimidazol-2-yl)phenyl]benzamide] reads 80.5%; that for `Cc1cc(C)c(-c2nc3ccccc3[nH]2)cc1NC(=O)c1ccc(OCc2ccccn2)cc1` [Example 68, N-[5-(1H-benzimidazol-2-yl)-2,4-dimethylphenyl]-4-(pyridin-2-ylmethoxy)benzamide], 83.3%.
